Data as given in patent US11529341B2, “Bicyclic compounds as inhibitors of PD1/PD-L1 interaction/activation” (JUBILANT PRODEL LLC, priority 2018, dated 2022).

Target: T1, PD-1/PD-L1 interaction (Homo sapiens, UniProt Q9NZQ7)
T1 construct: Tag1 (undisclosed kit tag); purchased CisBio 63ADK000CPAPEG
Assay: PD-1/PD-L1 Homogenous Time-Resolved Fluorescence (HTRF) binding assay (CisBio kit)
Details: Biochemical PD1/PD-L1 inhibition
Description: PD-L1 Enzyme Assay: Homogenous Time-Resolved Fluorescence (HTRF) Binding Assay
All binding studies were performed using PD-1/PD-L1 Binding Assay Kit from CisBio (Catalog #63ADK000CPAPEG), according to the manufacturer's protocol. The interaction between Tag1-PD-1 and […] was detected by anti-Tag1-Eu^3+ (HTRF donor) and anti-Tag2-XL665 (HTRF acceptor). When the donor and acceptor antibodies were brought to close proximity due to PD-1 and PD-L1 binding, excitation of the donor antibody triggered fluorescent resonance energy transfer (FRET) towards the acceptor antibody, which in turn emitted specifically at 665 nm. This specific signal is positively proportional to PD-1/PD-L1 interaction. The compounds blocking PD-1/PD-L1 interaction will cause a reduction in HTRF signal. The necessary reagents were mixed in the following order: 2 μl compounds (or diluents buffer), 4 μl PD-L1 protein, 4 μl PD-1 protein. After an incubation of 15 minutes, 5 μl of anti-Tag1-Eu^3+ and 5 μl of anti-Tag2-XL665 were added. The plate was sealed and incubated at room temperature for 1 h. The fluorescence emission was read at two different wavelengths (665 nm and 620 nm) on a BMG PheraStar® multi-plate reader. Results were calculated from the 665 nm and 620 nm fluorescence signal and expressed in HTRF ratio=(665 nm/620 nm)×10^4.

T1 sequence (Q9NZQ7 19-238 limits assumed): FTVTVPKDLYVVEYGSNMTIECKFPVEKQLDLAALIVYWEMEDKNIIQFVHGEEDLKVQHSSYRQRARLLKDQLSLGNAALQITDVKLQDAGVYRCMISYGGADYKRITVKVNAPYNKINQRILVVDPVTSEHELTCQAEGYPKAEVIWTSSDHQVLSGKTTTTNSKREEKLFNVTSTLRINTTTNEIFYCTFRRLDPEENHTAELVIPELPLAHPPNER

| SMILES | IC50 [nM] |
| --- | --- |
| CC(=O)NCCNCc1c(OCc2ccc(C#N)cc2)cc(OCc2cccc(-c3ccccc3)c2C)c2c1CCC2 [Compound 54, N-(2-(((5-((4-cyanobenzyl)oxy)-7-((2-methyl-[1,1′-biphenyl]-3-yl)methoxy)-2,3-dihydro-1H-inden-4-yl)methyl)amino)ethyl)acetamide] | 100 to 500 |
| COc1cc(OCc2cccc(-c3ccccc3)c2C#N)c2c(c1CNCCNC(C)=O)CCC2 [Compound 56, N-(2-(((7-((2-cyano-[1,1′-biphenyl]-3-yl)methoxy)-5-methoxy-2,3-dihydro-1H-inden-4-yl)methyl)amino)ethyl)acetamide] | < 100 |
| COc1cc(OCc2cccc(-c3ccccc3)c2C#N)c2c(c1CN1CCOC[C@H]1C(=O)O)CCC2 [Compound 59, (S)-4-((7-((2-cyano-[1,1′-biphenyl]-3-yl)methoxy)-5-methoxy-2,3-dihydro-1H-inden-4-yl)methyl)morpholine-3-carboxylic acid] | < 100 |
| COc1cc(OCc2cccc(-c3ccccc3)c2C#N)c2c(c1CNCC(=O)O)CCC2 [Compound 60, ((7-((2-cyano-[1,1′-biphenyl]-3-yl)methoxy)-5-methoxy-2,3-dihydro-1H-inden-4-yl)methyl)glycine] | < 100 |
| COc1cc(OCc2cccc(-c3ccccc3)c2C#N)c2c(c1CN1CC3(CC3)C[C@H]1C(=O)O)CCC2 [Compound 61, (S)-5-((7-((2-cyano-[1,1′-biphenyl]-3-yl)methoxy)-5-methoxy-2,3-dihydro-1H-inden-4-yl)methyl)-5-azaspiro[2.4]heptane-6-carboxylic acid] | < 100 |
| COc1cc(OCc2cccc(-c3ccccc3)c2C#N)c2c(c1CN(C)CCN(C)C(C)=O)CCC2 [Compound 64, N-(2-(((7-((2-cyano-[1,1′-biphenyl]-3-yl)methoxy)-5-methoxy-2,3-dihydro-1H-inden-4-yl)methyl)(methyl)amino)ethyl)-N-methylacetamide] | 100 to 500 |
| Cc1c(COc2cc(OCCCCC(=O)O)c(CN3CCCC[C@H]3C(=O)O)c3c2CCC3)cccc1-c1ccccc1 [Compound 67, (S)-1-((5-(4-carboxybutoxy)-7-((2-methyl-[1,1′-biphenyl]-3-yl)methoxy)-2,3-dihydro-1H-inden-4-yl)methyl)piperidine-2-carboxylic acid] | < 100 |
| N#Cc1cncc(COc2cc(OCc3cccc(-c4ccccc4)c3C#N)c3c(c2CN2CCC[C@@H](C(=O)O)C2)CCC3)c1 [Compound 71, (R)-1-((7-((2-cyano-[1,1′-biphenyl]-3-yl)methoxy)-5-((5-cyanopyridin-3-yl)methoxy)-2,3-dihydro-1H-inden-4-yl)methyl)piperidine-3-carboxylic acid] | < 100 |
| COc1cc(OCc2cccc(-c3ccccc3)c2C(F)(F)F)c2c(c1CN1CCCC[C@H]1C(=O)O)CCC2 [Compound 75, (S)-1-((5-methoxy-7-((2-(trifluoromethyl)-[1,1′-biphenyl]-3-yl)methoxy)-2,3-dihydro-1H-inden-4-yl)methyl)piperidine-2-carboxylic acid] | > 500 |
| N#Cc1c(COc2cc(OCCCCC(=O)O)c(CN3CCCC[C@H]3C(=O)O)c3c2CCC3)cccc1-c1ccccc1 [Compound 78, (S)-1-((5-(4-carboxybutoxy)-7-((2-cyano-[1,1′-biphenyl]-3-yl)methoxy)-2,3-dihydro-1H-inden-4-yl)methyl)piperidine-2-carboxylic acid] | < 100 |
| CC(=O)NCCNCc1c(OCCCCC#N)cc(OCc2cccc(-c3ccccc3)c2C)c2c1CCC2 [Compound 79, N-(2-(((5-(4-cyanobutoxy)-7-((2-methyl-[1,1′-biphenyl]-3-yl)methoxy)-2,3-dihydro-1H-inden-4-yl)methyl)amino)ethyl)acetamide] | < 100 |

Other lines, results leading:

| IC50 [nM] | SMILES |
| --- | --- |
| < 100 | Cc1c(COc2cc(OCc3cncc(C#N)c3)c(CN3CC4(CC4)C[C@H]3C(=O)O)c3c2CCC3)cccc1-c1ccccc1 [Compound 52, (S)-5-((5-((5-cyanopyridin-3-yl)methoxy)-7-((2-methyl-[1,1′-biphenyl]-3-yl)methoxy)-2,3-dihydro-1H-inden-4-yl)methyl)-5-azaspiro[2.4]heptane-6-carboxylic acid] |
| < 100 | CC(=O)NCCN(C)Cc1c(OCc2cccc(C#N)c2)cc(OCc2cccc(-c3ccccc3)c2C)c2c1CCC2 [Compound 53, N-(2-(((5-((3-cyanobenzyl)oxy)-7-((2-methyl-[1,1′-biphenyl]-3-yl)methoxy)-2,3-dihydro-1H-inden-4-yl)methyl)(methyl)amino)ethyl)acetamide] |
| < 100 | COc1cc(OCc2cccc(-c3ccccc3)c2C#N)c2c(c1CN1CCCC[C@H]1C(=O)O)CCC2 [Compound 55, (S)-1-((7-((2-cyano-[1,1′-biphenyl]-3-yl)methoxy)-5-methoxy-2,3-dihydro-1H-inden-4-yl)methyl)piperidine-2-carboxylic acid] |
| < 100 | COc1cc(OCc2cccc(-c3ccccc3)c2C#N)c2c(c1CN1C[C@H](O)C[C@H]1C(=O)O)CCC2 [Compound 57, (2S,4R)-1-((7-((2-cyano-[1,1′-biphenyl]-3-yl)methoxy)-5-methoxy-2,3-dihydro-1H-inden-4-yl)methyl)-4-hydroxypyrrolidine-2-carboxylic acid] |
| < 100 | COc1cc(OCc2cccc(-c3ccccc3)c2C#N)c2c(c1CNC(CO)(CO)CO)CCC2 [Compound 58, 3-(((7-(((1,3-dihydroxy-2-(hydroxymethyl)propan-2-yl)amino)methyl)-6-methoxy-2,3-dihydro-1H-inden-4-yl)oxy)methyl)-[1,1′-biphenyl]-2-carbonitrile] |
| 100 to 500 | COc1cc(OCc2cccc(-c3ccccc3)c2C#N)c2c(c1CN1CCCCC1CC(=O)O)CCC2 (centres unmarked) [Compound 63, 2-(1-((7-((2-cyano-[1,1′-biphenyl]-3-yl)methoxy)-5-methoxy-2,3-dihydro-1H-inden-4-yl)methyl)piperidin-2-yl)acetic acid] |
| < 100 | CC(=O)NCCNCc1c(OCCCCC(=O)O)cc(OCc2cccc(-c3ccccc3)c2C)c2c1CCC2 [Compound 65, 5-((4-(((2-acetamidoethyl)amino)methyl)-7-((2-methyl-[1,1′-biphenyl]-3-yl)methoxy)-2,3-dihydro-1H-inden-5-yl)oxy)pentanoic acid] |
| 100 to 500 | CC(=O)NCCNCc1c(OCCCCC(N)=O)cc(OCc2cccc(-c3ccccc3)c2C)c2c1CCC2 [Compound 66, 5-((4-(((2-acetamidoethyl)amino)methyl)-7-((2-methyl-[1,1′-biphenyl]-3-yl)methoxy)-2,3-dihydro-1H-inden-5-yl)oxy)pentanamide] |
| < 100 | Cc1c(COc2cc(OCCCCC(N)=O)c(CN3CCCC[C@H]3C(=O)O)c3c2CCC3)cccc1-c1ccccc1 [Compound 68, (S)-1-((5-((5-amino-5-oxopentyl)oxy)-7-((2-methyl-[1,1′-biphenyl]-3-yl)methoxy)-2,3-dihydro-1H-inden-4-yl)methyl)piperidine-2-carboxylic acid] |
| < 100 | N#Cc1cncc(COc2cc(OCc3cccc(-c4ccccc4)c3C#N)c3c(c2CN2CCCC[C@H]2C(=O)O)CCC3)c1 [Compound 69, (S)-1-((7-((2-cyano-[1,1′-biphenyl]-3-yl)methoxy)-5-((5-cyanopyridin-3-yl)methoxy)-2,3-dihydro-1H-inden-4-yl)methyl)piperidine-2-carboxylic acid] |
| < 100 | N#Cc1cncc(COc2cc(OCc3cccc(-c4ccccc4)c3C#N)c3c(c2CN2C[C@H](O)C[C@H]2C(=O)O)CCC3)c1 [Compound 70, (2S,4R)-1-((7-((2-cyano-[1,1′-biphenyl]-3-yl)methoxy)-5-((5-cyanopyridin-3-yl)methoxy)-2,3-dihydro-1H-inden-4-yl)methyl)-4-hydroxypyrrolidine-2-carboxylic acid] |
| 100 to 500 | COC(=O)C12CCC(NCc3c(OCc4cccc(C#N)c4)cc(OCc4cccc(-c5ccccc5)c4C)c4c3CCC4)(CC1)CC2 [Compound 73, methyl 4-(((5-((3-cyanobenzyl)oxy)-7-((2-methyl-[1,1′-biphenyl]-3-yl)methoxy)-2,3-dihydro-1H-inden-4-yl)methyl)amino)bicyclo[2.2.2]octane-1-carboxylate] |
| < 100 | Cc1c(COc2cc(OCc3cccc(C#N)c3)c(CNC34CCC(C(=O)O)(CC3)CC4)c3c2CCC3)cccc1-c1ccccc1 [Compound 74, 4-(((5-((3-cyanobenzyl)oxy)-7-((2-methyl-[1,1′-biphenyl]-3-yl)methoxy)-2,3-dihydro-1H-inden-4-yl)methyl)amino)bicyclo[2.2.2]octane-1-carboxylic acid] |
| > 500 | COc1cc(OCc2cccc(-c3ccccc3)c2C(F)(F)F)c2c(c1CN1C[C@H](O)C[C@H]1C(=O)O)CCC2 [Compound 76, (2S,4R)-4-hydroxy-1-((5-methoxy-7-((2-(trifluoromethyl)-[1,1′-biphenyl]-3-yl)methoxy)-2,3-dihydro-1H-inden-4-yl)methyl)pyrrolidine-2-carboxylic acid] |
| < 100 | Cc1c(COc2cc(OCC3CCCN(C)C3)c(CN3CCCC[C@H]3C(=O)O)c3c2CCC3)cccc1-c1ccccc1 (stereo partly drawn) [Compound 77, (2S)-1-((7-((2-methyl-[1,1′-biphenyl]-3-yl)methoxy)-5-((1-methylpiperidin-3-yl)methoxy)-2,3-dihydro-1H-inden-4-yl)methyl)piperidine-2-carboxylic acid] |
